≈ marks a conversion by molar mass, not a printed value.
How the values were obtained:
Type in all cases: functional
Staphylococcus aureus [1] = test: Tested in vitro for minimum inhibitory concentration to produce antibacterial activity against Staphylococcus aureus A-5278
Streptococcus pyogenes [2] = test: Tested in vitro for minimum inhibitory concentration to produce antibacterial activity against Streptococcus pyogenes PIU 2548 in presence of erythromycin A
Streptococcus agalactiae [3] = test: Tested in vitro for minimum inhibitory concentration to produce antibacterial activity against Streptococcus agalactiae CMX 508
Streptococcus pyogenes [4] = test: Tested in vitro for minimum inhibitory concentration to produce antibacterial activity against Streptococcus pyogenes 930 in presence of erythromycin A
Enterococcus faecium [5] = test: Tested in vitro for minimum inhibitory concentration to produce antibacterial activity against Enterococcus faecium ATCC 8043 in presence of erythromycin A
Streptococcus equinus [6] = test: Tested in vitro for minimum inhibitory concentration to produce antibacterial activity against Streptococcus bovis A-5169 in presence of erythromycin A
[7] = tested on: Staphylococcus epidermidis; test: Tested in vitro for minimum inhibitory concentration to produce antibacterial activity against Staphylococcus epidermidis 3519
Staphylococcus aureus [8] = test: Tested in vitro for minimum inhibitory concentration to produce antibacterial activity against Staphylococcus aureus ATCC 6538P
Streptococcus pyogenes [9] = test: Tested in vitro for minimum inhibitory concentration to produce antibacterial activity against Streptococcus pyogenes EES61 in presence of erythromycin A
Escherichia coli [10] = test: Tested in vitro for minimum inhibitory concentration to produce antibacterial activity against Escherichia coli JUHL
Staphylococcus aureus [11] = test: Tested in vitro for minimum inhibitory concentration to produce antibacterial activity against Staphylococcus aureus ATCC 6538P in presence of erythromycin A
Staphylococcus aureus [12] = test: Tested in vitro for minimum inhibitory concentration to produce antibacterial activity against Staphylococcus aureus NCTC-10649M in presence of erythromycin A
Escherichia coli [13] = test: Tested in vitro for minimum inhibitory concentration to produce antibacterial activity against Escherichia coli SS
Streptococcus pyogenes [14] = test: Tested in vitro for minimum inhibitory concentration to produce antibacterial activity against Streptococcus pyogenes 930
Staphylococcus aureus [15] = test: Tested in vitro for minimum inhibitory concentration to produce antibacterial activity against Staphylococcus aureus NCTC-10649M
Streptococcus pyogenes [16] = test: Tested in vitro for minimum inhibitory concentration to produce antibacterial activity against Streptococcus pyogenes EES61
[17] = tested on: Staphylococcus epidermidis; test: Tested in vitro for minimum inhibitory concentration to produce antibacterial activity against Staphylococcus epidermidis 3519 in presence of erythromycin A
Staphylococcus aureus [18] = test: Tested in vitro for minimum inhibitory concentration to produce antibacterial activity against Staphylococcus aureus 1775 in presence of erythromycin A
Staphylococcus aureus [19] = test: Tested in vitro for minimum inhibitory concentration to produce antibacterial activity against Staphylococcus aureus A5177
Streptococcus equinus [20] = test: Tested in vitro for minimum inhibitory concentration to produce antibacterial activity against Streptococcus bovis A-5169
Streptococcus agalactiae [21] = test: Tested in vitro for minimum inhibitory concentration to produce antibacterial activity against Streptococcus agalactiae CMX 508 in presence of erythromycin A
Streptococcus pyogenes [22] = test: Tested in vitro for minimum inhibitory concentration to produce antibacterial activity against Streptococcus pyogenes PIU 2548
Staphylococcus aureus [23] = test: Tested in vitro for minimum inhibitory concentration to produce antibacterial activity against Staphylococcus aureus CMX 553
Staphylococcus aureus [24] = test: Tested in vitro for minimum inhibitory concentration to produce antibacterial activity against Staphylococcus aureus CMX 642A in presence of erythromycin A
Staphylococcus aureus [25] = test: Tested in vitro for minimum inhibitory concentration to produce antibacterial activity against Staphylococcus aureus A5177 in presence of erythromycin A
Enterococcus faecium [26] = test: Tested in vitro for minimum inhibitory concentration to produce antibacterial activity against Enterococcus faecium ATCC 8043
Escherichia coli [27] = test: Tested in vitro for minimum inhibitory concentration to produce antibacterial activity against Escherichia coli JUHL in presence of erythromycin A
Staphylococcus aureus [28] = test: Tested in vitro for minimum inhibitory concentration to produce antibacterial activity against Staphylococcus aureus CMX 642A
Staphylococcus aureus [29] = test: Tested in vitro for minimum inhibitory concentration to produce antibacterial activity against Staphylococcus aureus CMX 553 in presence of erythromycin A
Staphylococcus aureus [30] = test: Tested in vitro for minimum inhibitory concentration to produce antibacterial activity against Staphylococcus aureus 1775
Staphylococcus aureus [31] = test: Tested in vitro for minimum inhibitory concentration to produce antibacterial activity against Staphylococcus aureus A-5278 in presence of erythromycin A
Escherichia coli [32] = test: Tested in vitro for minimum inhibitory concentration to produce antibacterial activity against Escherichia coli SS in presence of erythromycin A

| SMILES | MIC (Staphylococcus aureus [1]) [µg/mL] | MIC (Streptococcus pyogenes [2]) [µg/mL] | MIC (Streptococcus agalactiae [3]) [µg/mL] | MIC (Streptococcus pyogenes [4]) [µg/mL] | MIC (Enterococcus faecium [5]) [µg/mL] | MIC (Streptococcus equinus [6]) [µg/mL] | MIC [7] [µg/mL] | MIC (Staphylococcus aureus [8]) [µg/mL] | MIC (Streptococcus pyogenes [9]) [µg/mL] | MIC (Escherichia coli [10]) [µg/mL] | MIC (Staphylococcus aureus [11]) [µg/mL] | MIC (Staphylococcus aureus [12]) [µg/mL] | MIC (Escherichia coli [13]) [µg/mL] | MIC (Streptococcus pyogenes [14]) [µg/mL] | MIC (Staphylococcus aureus [15]) [µg/mL] | MIC (Streptococcus pyogenes [16]) [µg/mL] | MIC [17] [µg/mL] | MIC (Staphylococcus aureus [18]) [µg/mL] | MIC (Staphylococcus aureus [19]) [µg/mL] | MIC (Streptococcus equinus [20]) [µg/mL] | further results |
| --- | --- | --- | --- | --- | --- | --- | --- | --- | --- | --- | --- | --- | --- | --- | --- | --- | --- | --- | --- | --- | --- |
| CC[C@H]1OC(=O)[C@H](C)[C@@H](OC(=S)SC)[C@H](C)[C@@H](O[C@@H]2O[C@H](C)C[C@H](N(C)C)[C@H]2O)[C@](C)(OC)C[C@@H](C)C(=O)[C@H](C)[C@@H](O)[C@]1(C)O | > 100 | 6.2 | 0.78 (≈ 1.15 µM) | > 100 | 0.05 | 0.02 | 25 (≈ 36.8 µM) | 25 (≈ 36.8 µM) | 0.02 | > 100 | 0.2 | 0.2 | 0.39 (≈ 0.574 µM) | 100 (≈ 147 µM) | 12.5 (≈ 18.4 µM) | 0.78 (≈ 1.15 µM) | 0.2 | > 100 | 25 (≈ 36.8 µM) | 0.39 (≈ 0.574 µM) | MIC (Streptococcus agalactiae [21]): 0.02 µg/mL; MIC (Streptococcus pyogenes [22]): 1.56 µg/mL (≈ 2.29 µM); MIC (Staphylococcus aureus [23]): 25 µg/mL (≈ 36.8 µM); MIC (Staphylococcus aureus [24]): 0.2 µg/mL; MIC (Staphylococcus aureus [25]): 3.1 µg/mL; MIC (Enterococcus faecium [26]): 6.2 µg/mL (≈ 9.12 µM); MIC (Escherichia coli [27]): 50 µg/mL; MIC (Staphylococcus aureus [28]): 25 µg/mL (≈ 36.8 µM); MIC (Staphylococcus aureus [29]): 0.2 µg/mL; MIC (Staphylococcus aureus [30]): > 100 µg/mL; MIC (Staphylococcus aureus [31]): > 100 µg/mL; MIC (Escherichia coli [32]): 0.2 µg/mL |
| CCO/N=C1\[C@H](C)C[C@@](C)(OC)[C@H](O[C@@H]2O[C@H](C)C[C@H](N(C)C)[C@H]2O)[C@@H](C)C[C@@H](C)C(=O)O[C@H](CC)[C@@](C)(O)[C@H](O)[C@H]1C | > 100 | 3.1 | 3.1 (≈ 5.03 µM) | > 100 | 0.05 | 0.01 | 25 (≈ 40.5 µM) | 25 (≈ 40.5 µM) | 0.02 | > 100 | 0.39 | 0.39 | 3.1 (≈ 5.03 µM) | > 100 | 12.5 (≈ 20.3 µM) | 3.1 (≈ 5.03 µM) | 0.39 | > 100 | 25 (≈ 40.5 µM) | 3.1 (≈ 5.03 µM) | MIC (Streptococcus agalactiae [21]): 0.1 µg/mL; MIC (Streptococcus pyogenes [22]): 25 µg/mL (≈ 40.5 µM); MIC (Staphylococcus aureus [23]): 50 µg/mL (≈ 81.1 µM); MIC (Staphylococcus aureus [24]): 0.39 µg/mL; MIC (Staphylococcus aureus [25]): 3.1 µg/mL; MIC (Enterococcus faecium [26]): 25 µg/mL (≈ 40.5 µM); MIC (Escherichia coli [27]): 25 µg/mL; MIC (Staphylococcus aureus [28]): 50 µg/mL (≈ 81.1 µM); MIC (Staphylococcus aureus [29]): 0.39 µg/mL; MIC (Staphylococcus aureus [30]): > 100 µg/mL; MIC (Staphylococcus aureus [31]): > 100 µg/mL; MIC (Escherichia coli [32]): 0.2 µg/mL |
| CC[C@H]1OC(=O)[C@H](C)C[C@H](C)[C@@H](O[C@@H]2O[C@H](C)C[C@H](N(C)C)[C@H]2O)[C@](C)(OC)C[C@@H](C)C(=O)/C(C)=C/[C@]1(C)O | > 100 | 12.5 | 25 (≈ 45 µM) | 12.5 | 0.2 | 0.2 | > 100 | > 100 | 0.01 | > 100 | 0.39 | 0.39 | > 100 | > 100 | > 100 | 12.5 (≈ 22.5 µM) | 0.39 | > 100 | > 100 | > 100 | MIC (Streptococcus agalactiae [21]): 0.02 µg/mL; MIC (Streptococcus pyogenes [22]): > 100 µg/mL; MIC (Staphylococcus aureus [23]): > 100 µg/mL; MIC (Staphylococcus aureus [24]): 0.39 µg/mL; MIC (Staphylococcus aureus [25]): 3.1 µg/mL; MIC (Enterococcus faecium [26]): > 100 µg/mL; MIC (Escherichia coli [27]): 50 µg/mL; MIC (Staphylococcus aureus [28]): > 100 µg/mL; MIC (Staphylococcus aureus [29]): 0.39 µg/mL; MIC (Staphylococcus aureus [30]): > 100 µg/mL; MIC (Staphylococcus aureus [31]): > 100 µg/mL; MIC (Escherichia coli [32]): 0.78 µg/mL |
| CC[C@H]1OC(=O)[C@H](C)C[C@H](C)[C@@H](O[C@@H]2O[C@H](C)C[C@H](N(C)C)[C@H]2O)[C@](C)(OC)C[C@@H](C)C(=O)[C@H](C)[C@@H](O)[C@]1(C)O | > 100 | 6.2 | 3.1 (≈ 5.4 µM) | > 100 | 0.05 | 0.02 | 50 (≈ 87.1 µM) | 25 (≈ 43.6 µM) | 0.02 | > 100 | 0.1 | 0.2 | 0.78 (≈ 1.36 µM) | > 100 | 6.2 (≈ 10.8 µM) | 1.56 (≈ 2.72 µM) | 0.1 | > 100 | 25 (≈ 43.6 µM) | 0.78 (≈ 1.36 µM) | MIC (Streptococcus agalactiae [21]): 0.02 µg/mL; MIC (Streptococcus pyogenes [22]): 3.1 µg/mL (≈ 5.4 µM); MIC (Staphylococcus aureus [23]): 25 µg/mL (≈ 43.6 µM); MIC (Staphylococcus aureus [24]): 0.2 µg/mL; MIC (Staphylococcus aureus [25]): 1.56 µg/mL; MIC (Enterococcus faecium [26]): 25 µg/mL (≈ 43.6 µM); MIC (Escherichia coli [27]): 50 µg/mL; MIC (Staphylococcus aureus [28]): 25 µg/mL (≈ 43.6 µM); MIC (Staphylococcus aureus [29]): 0.2 µg/mL; MIC (Staphylococcus aureus [30]): > 100 µg/mL; MIC (Staphylococcus aureus [31]): > 100 µg/mL; MIC (Escherichia coli [32]): 0.1 µg/mL |
| CC[C@H]1OC(=O)[C@H](C)[C@@H](O[C@H]2C[C@@](C)(OC)[C@@H](O)[C@H](C)O2)[C@H](C)[C@@H](O[C@@H]2O[C@H](C)C[C@H](N(C)C)[C@H]2O)[C@](C)(OC)C[C@@H](C)C(=O)[C@H](C)[C@@H](O)[C@]1(C)O [CLARITHROMYCIN] | > 100 | 8 | 0.02 (≈ 0.0267 µM) | > 100 | 0.05 | 0.01 | 0.12 (≈ 0.16 µM) | 0.2 (≈ 0.267 µM) | 0.01 | 100 (≈ 134 µM) | 0.2 | 0.03 | 0.39 (≈ 0.521 µM) | > 100 | 0.03 (≈ 0.0401 µM) | 0.01 (≈ 0.0134 µM) | 0.03 | > 100 | 1.56 (≈ 2.09 µM) | 0.01 (≈ 0.0134 µM) | MIC (Streptococcus agalactiae [21]): 0.02 µg/mL; MIC (Streptococcus pyogenes [22]): 8 µg/mL (≈ 10.7 µM); MIC (Staphylococcus aureus [23]): 0.12 µg/mL (≈ 0.16 µM); MIC (Staphylococcus aureus [24]): 0.03 µg/mL; MIC (Staphylococcus aureus [25]): 3.1 µg/mL; MIC (Enterococcus faecium [26]): 0.05 µg/mL (≈ 0.0668 µM); MIC (Escherichia coli [27]): 50 µg/mL; MIC (Staphylococcus aureus [28]): 0.03 µg/mL (≈ 0.0401 µM); MIC (Staphylococcus aureus [29]): 0.12 µg/mL; MIC (Staphylococcus aureus [30]): > 100 µg/mL; MIC (Staphylococcus aureus [31]): > 100 µg/mL; MIC (Escherichia coli [32]): 0.39 µg/mL |
